Test results as given in patent US8415272B2, “Quinoline derivatives and their use as fungicides” (Syngenta Crop Protection LLC, priority 2008, dated 2013).

Assays:
[1] = test system: Plasmopara viticola; test: Leaf disk assay, Plasmopara viticola (downy mildew of grapevine), preventive; type: in vivo; settings: foliar, 168 h, grapevine leaf disks, assessed seven days after inoculation, read-out: control of fungal infection, Plasmopara viticola
[2] = test system: Erysiphe graminis f.sp. tritici; test: Leaf disk assay, Erysiphe graminis f.sp. tritici (wheat powdery mildew), preventive; type: in vivo; settings: Blumeria graminis, foliar, 96 h, wheat leaf segments, assessed four days after inoculation, read-out: control of fungal infection, Erysiphe graminis f.sp. tritici
Outline: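 Wheat leaf segments on agar were sprayed with compound at 200 ppm (DMSO stock diluted in water). After 12–24 h drying they were inoculated with powdery mildew spores. Preventive activity was scored 4 days after inoculation.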

[3] = test system: Pyrenophora teres; test: Leaf disk assay, Pyrenophora teres (barley net blotch), preventive; type: in vivo; settings: foliar, 96 h, barley leaf segments, assessed four days after inoculation, read-out: control of fungal infection, Pyrenophora teres
Experimental: The compounds were tested in a leaf disk assay, with methods described below. The test compounds were dissolved in DMSO and diluted into water to 200 ppm. In the case of the test on Pythium ultimum, they were dissolved in DMSO and diluted into water to 20 ppm. Pyrenophora teres (barley net blotch): Barley leaf segments were placed on agar in a 24-well plate and sprayed with a solution of the test compound. After allowing to dry completely, for between 12 and 24 hours, the leaf disks were inoculated with a spore suspension of the fungus. After appropriate incubation the activity of a compound was assessed four days after inoculation as preventive fungicidal activity.

[4] = test system: Puccinia recondita f.sp. tritici; test: Leaf disk assay, Puccinia recondita f.sp. tritici (wheat brown rust), preventive; type: in vivo; settings: foliar, 216 h, wheat leaf segments, assessed nine days after inoculation, read-out: control of fungal infection, Puccinia recondita f.sp. tritici
[5] = test system: Phytophthora infestans; test: whole plant or invertebrate; type: in vivo; settings: in Solanum lycopersicum, foliar, 96 h, read-out: control of fungal infection, Phytophthora infestans
[6] = test system: Septoria nodorum; test: Leaf disk assay, Septoria nodorum (wheat glume blotch), preventive; type: in vivo; settings: Parastagonospora nodorum, foliar, 96 h, wheat leaf segments, assessed four days after inoculation, read-out: control of fungal infection, Septoria nodorum
[7] = test system: Septoria tritici; test: Growth inhibition in nutrient broth, Septoria tritici (leaf blotch), photometric; type: cell-based; settings: Zymoseptoria tritici, PDB broth, 24 C, 72 hrs, read-out: control of fungal infection, Septoria tritici
[8] = test system: Pythium ultimum; test: Growth inhibition in potato dextrose broth, Pythium ultimum (damping off), photometric; type: cell-based; settings: Globisporangium ultimum, 24° C., 48 hours, read-out: control of fungal infection, Pythium ultimum
Outline: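 Growth inhibition was read photometrically at 48 hours after incubation at 24° C. Test compound was diluted from DMSO to 20 ppm in water and combined with potato dextrose broth seeded with Pythium ultimum mycelial fragments.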

[9] = test system: Fusarium culmorum; test: Growth inhibition in nutrient broth, Fusarium culmorum (root rot), photometric; type: cell-based; settings: 48 h, read-out: control of fungal infection, Fusarium culmorum
Experimental: The compounds were tested in a leaf disk assay, with methods described below. The test compounds were dissolved in DMSO and diluted into water to 200 ppm. In the case of the test on Pythium ultimum, they were dissolved in DMSO and diluted into water to 20 ppm.
Fusarium culmorum (root rot): Conidia of the fungus from cryogenic storage were directly mixed into nutrient broth (PDB potato dextrose broth). After placing a (DMSO) solution of the test compounds into a microtiter plate (96-well format) the nutrient broth containing the fungal spores was added. The test plates were incubated at 24 C and the inhibition of growth was determined photometrically after 48 hrs.

C#Cc1cnc2c(Cl)cc(OC(SC)C(=O)NC(C)(C)C#C)cc2c1 (stereo not shown) [Example 19]
≥ 60%: pest or weed control at 200 ppm [1] | pest or weed control at 200 ppm [2] | pest or weed control at 200 ppm [3] | pest or weed control at 200 ppm [4] | pest or weed control at 200 ppm [5] | pest or weed control at 200 ppm [6]

C#Cc1cnc2c(Cl)cc(OC(SC)C(=O)NC(C)(C)C#CCOC)cc2c1 (stereo not shown) [Example 62]
≥ 60%: pest or weed control at 200 ppm [1] | inhibition of growth at 60 ppm [7] | pest or weed control at 200 ppm [2] | pest or weed control at 200 ppm [3] | pest or weed control at 200 ppm [4] | pest or weed control at 200 ppm [5] | pest or weed control at 200 ppm [6]

C#Cc1cnc2c(C)cc(OC(SC)C(=O)NC(C)(C)COCOC)cc2c1 (stereo not shown) [Example 68]
≥ 60%: pest or weed control at 200 ppm [1] | inhibition of growth at 60 ppm [7] | pest or weed control at 200 ppm [2] | pest or weed control at 200 ppm [3] | pest or weed control at 200 ppm [4] | pest or weed control at 200 ppm [5] | pest or weed control at 200 ppm [6]

C#Cc1cnc2c(Cl)cc(OC(SC)C(=O)NC(C)(C)COC)cc2c1 (stereo not shown) [Example 74]
≥ 60%: inhibition of growth at 20 ppm [8] | pest or weed control at 200 ppm [1] | inhibition of growth at 60 ppm [7] | pest or weed control at 200 ppm [2] | pest or weed control at 200 ppm [3] | pest or weed control at 200 ppm [4] | pest or weed control at 200 ppm [5] | pest or weed control at 200 ppm [6]

C#CCOCC(C)(C)NC(=O)C(Oc1cc(Cl)c2ncc(C#C)cc2c1)SC (stereo not shown) [Example 76]
≥ 60%: inhibition of growth at 20 ppm [8] | pest or weed control at 200 ppm [1] | inhibition of growth at 60 ppm [7] | pest or weed control at 200 ppm [2] | pest or weed control at 200 ppm [3] | pest or weed control at 200 ppm [4] | pest or weed control at 200 ppm [5] | pest or weed control at 200 ppm [6]

C#Cc1cnc2ccc(OC(SC)C(=O)NC(C)(C)C#N)cc2c1 (stereo not shown) [Example 82]
≥ 60%: inhibition of growth at 20 ppm [8] | pest or weed control at 200 ppm [1] | inhibition of growth at 60 ppm [7] | pest or weed control at 200 ppm [2] | pest or weed control at 200 ppm [3] | pest or weed control at 200 ppm [4] | pest or weed control at 200 ppm [5] | pest or weed control at 200 ppm [6]

C#Cc1cnc2c(C)cc(OC(SC)C(=O)NC(C)(C)COCC)cc2c1 (stereo not shown) [Example 95]
≥ 60%: inhibition of growth at 20 ppm [8] | pest or weed control at 200 ppm [1] | inhibition of growth at 60 ppm [7] | pest or weed control at 200 ppm [2] | pest or weed control at 200 ppm [3] | pest or weed control at 200 ppm [4] | pest or weed control at 200 ppm [5] | pest or weed control at 200 ppm [6]

C#Cc1cnc2c(C)cc(OC(SC)C(=O)NC(C)(C#N)CF)cc2c1 (stereo not shown) [Example 102]
≥ 60%: pest or weed control at 200 ppm [3] | pest or weed control at 200 ppm [4]

C#Cc1cnc2c(C)cc(OC(CC)C(=O)NC(C)(C)C#CC)cc2c1 (stereo not shown) [Example 113]
≥ 60%: pest or weed control at 200 ppm [1] | inhibition of growth at 60 ppm [7] | pest or weed control at 200 ppm [2] | pest or weed control at 200 ppm [3] | pest or weed control at 200 ppm [4] | pest or weed control at 200 ppm [5] | pest or weed control at 200 ppm [6]

C#Cc1cnc2c(Cl)cc(OC(SC)C(=O)NC(C)(C)C#CCC)cc2c1 (stereo not shown) [Example 122]
≥ 60%: inhibition of growth at 20 ppm [8] | pest or weed control at 200 ppm [1] | inhibition of growth at 60 ppm [7] | pest or weed control at 200 ppm [2] | pest or weed control at 200 ppm [3] | pest or weed control at 200 ppm [4] | pest or weed control at 200 ppm [5] | pest or weed control at 200 ppm [6]

C#Cc1cnc2ccc(OC(SC)C(=O)NC(C)(C#C)COC)cc2c1 (stereo not shown) [Example 129]
≥ 60%: inhibition of growth at 20 ppm [8] | pest or weed control at 200 ppm [1] | inhibition of growth at 60 ppm [7] | pest or weed control at 200 ppm [2] | pest or weed control at 200 ppm [3] | pest or weed control at 200 ppm [4] | pest or weed control at 200 ppm [5] | pest or weed control at 200 ppm [6]

C#Cc1cnc2c(C)cc(OC(SC)C(=O)NC(C)(COC)COC)cc2c1 (stereo not shown) [Example 133]
≥ 60%: pest or weed control at 200 ppm [1] | inhibition of growth at 60 ppm [7] | pest or weed control at 200 ppm [2] | pest or weed control at 200 ppm [3] | pest or weed control at 200 ppm [4] | pest or weed control at 200 ppm [5] | pest or weed control at 200 ppm [6]

C#CCOCC#CC(C)(C)NC(=O)C(Oc1cc2cc(C#C)cnc2cc1F)SC (stereo not shown) [Example 198]
≥ 60%: inhibition of growth at 20 ppm [8] | pest or weed control at 200 ppm [1] | inhibition of growth at 60 ppm [9] | inhibition of growth at 60 ppm [7] | pest or weed control at 200 ppm [2] | pest or weed control at 200 ppm [4] | pest or weed control at 200 ppm [5] | pest or weed control at 200 ppm [6]

C#Cc1cnc2cc(F)c(OC(SC)C(=O)NC(C)(C)C#CCOCC=C)cc2c1 (stereo not shown) [Example 199]
≥ 60%: inhibition of growth at 20 ppm [8] | pest or weed control at 200 ppm [1] | inhibition of growth at 60 ppm [9] | inhibition of growth at 60 ppm [7] | pest or weed control at 200 ppm [2] | pest or weed control at 200 ppm [4] | pest or weed control at 200 ppm [5] | pest or weed control at 200 ppm [6]

C#Cc1cnc2cc(F)c(OC(SC)C(=O)NC(C)(C)COCC)cc2c1 (stereo not shown) [Example 200]
≥ 60%: inhibition of growth at 20 ppm [8] | pest or weed control at 200 ppm [1] | inhibition of growth at 60 ppm [9] | inhibition of growth at 60 ppm [7] | pest or weed control at 200 ppm [2] | pest or weed control at 200 ppm [4] | pest or weed control at 200 ppm [5] | pest or weed control at 200 ppm [6]

C#Cc1cnc2ccc(OC(SC)C(=O)NC(C)(C#CC)CC)cc2c1 (stereo not shown) [Example 204]
≥ 60%: inhibition of growth at 20 ppm [8] | pest or weed control at 200 ppm [1] | inhibition of growth at 60 ppm [9] | inhibition of growth at 60 ppm [7] | pest or weed control at 200 ppm [2] | pest or weed control at 200 ppm [4] | pest or weed control at 200 ppm [5] | pest or weed control at 200 ppm [6]

C#Cc1cnc2ccc(OC(SC)C(=O)NC3(C#C)CCCCC3)cc2c1 (stereo not shown) [Example 206]
≥ 60%: inhibition of growth at 20 ppm [8] | pest or weed control at 200 ppm [1] | inhibition of growth at 60 ppm [9] | inhibition of growth at 60 ppm [7] | pest or weed control at 200 ppm [2] | pest or weed control at 200 ppm [4] | pest or weed control at 200 ppm [5] | pest or weed control at 200 ppm [6]

C#CCNC(=O)C(Oc1ccc2ncc(C#C)cc2c1)SC (stereo not shown) [Example 208]
≥ 60%: inhibition of growth at 20 ppm [8] | pest or weed control at 200 ppm [1] | inhibition of growth at 60 ppm [9] | inhibition of growth at 60 ppm [7] | pest or weed control at 200 ppm [2] | pest or weed control at 200 ppm [4] | pest or weed control at 200 ppm [5] | pest or weed control at 200 ppm [6]

C#Cc1cnc2ccc(OC(SC)C(=O)NC3CC3)cc2c1 (stereo not shown) [Example 212]
≥ 60%: inhibition of growth at 20 ppm [8] | pest or weed control at 200 ppm [1] | inhibition of growth at 60 ppm [9] | inhibition of growth at 60 ppm [7] | pest or weed control at 200 ppm [2] | pest or weed control at 200 ppm [4] | pest or weed control at 200 ppm [5] | pest or weed control at 200 ppm [6]

C#Cc1cnc2ccc(OC(SC)C(=O)NC3CCC3)cc2c1 (stereo not shown) [Example 213]
≥ 60%: inhibition of growth at 20 ppm [8] | pest or weed control at 200 ppm [1] | inhibition of growth at 60 ppm [9] | inhibition of growth at 60 ppm [7] | pest or weed control at 200 ppm [2] | pest or weed control at 200 ppm [4] | pest or weed control at 200 ppm [5] | pest or weed control at 200 ppm [6]

C#Cc1cnc2ccc(OC(SC)C(=O)NC3CCCC3)cc2c1 (stereo not shown) [Example 214]
≥ 60%: inhibition of growth at 20 ppm [8] | pest or weed control at 200 ppm [1] | inhibition of growth at 60 ppm [9] | inhibition of growth at 60 ppm [7] | pest or weed control at 200 ppm [2] | pest or weed control at 200 ppm [4] | pest or weed control at 200 ppm [5] | pest or weed control at 200 ppm [6]

C#Cc1cnc2c(F)cc(OC(SC)C(=O)NC(C)(C)C#CCOC)cc2c1 (stereo not shown) [Example 218]
≥ 60%: inhibition of growth at 20 ppm [8] | pest or weed control at 200 ppm [1] | inhibition of growth at 60 ppm [9] | inhibition of growth at 60 ppm [7] | pest or weed control at 200 ppm [2] | pest or weed control at 200 ppm [4] | pest or weed control at 200 ppm [5] | pest or weed control at 200 ppm [6]

C#Cc1cnc2c(F)cc(OC(SC)C(=O)NC(C)C)cc2c1 (stereo not shown) [Example 222]
≥ 60%: inhibition of growth at 20 ppm [8] | pest or weed control at 200 ppm [1] | inhibition of growth at 60 ppm [9] | inhibition of growth at 60 ppm [7] | pest or weed control at 200 ppm [2] | pest or weed control at 200 ppm [4] | pest or weed control at 200 ppm [5] | pest or weed control at 200 ppm [6]
